Data reported in ChEMBL document CHEMBL1944535, “Synthesis, in vitro binding studies and docking of long-chain arylpiperazine nitroquipazine analogues, as potential serotonin transporter inhibitors” (Eur J Med Chem, 2012).

Tests used:
[1] = molecular target: Sodium-dependent serotonin transporter (Rattus norvegicus, UniProt P31652); assay: Displacement of [3H]-Citalopram from SERT in rat cerebral cortex homogenates after 1 hr by liquid scintillation counter; type: tissue-based
[2] = molecular target: Sodium-dependent serotonin transporter (Homo sapiens, UniProt P31645); assay: Displacement of [3H]-5HT from human SERT
Sequence of Sodium-dependent serotonin transporter (Homo sapiens, UniProt P31645) (P31645 whole entry): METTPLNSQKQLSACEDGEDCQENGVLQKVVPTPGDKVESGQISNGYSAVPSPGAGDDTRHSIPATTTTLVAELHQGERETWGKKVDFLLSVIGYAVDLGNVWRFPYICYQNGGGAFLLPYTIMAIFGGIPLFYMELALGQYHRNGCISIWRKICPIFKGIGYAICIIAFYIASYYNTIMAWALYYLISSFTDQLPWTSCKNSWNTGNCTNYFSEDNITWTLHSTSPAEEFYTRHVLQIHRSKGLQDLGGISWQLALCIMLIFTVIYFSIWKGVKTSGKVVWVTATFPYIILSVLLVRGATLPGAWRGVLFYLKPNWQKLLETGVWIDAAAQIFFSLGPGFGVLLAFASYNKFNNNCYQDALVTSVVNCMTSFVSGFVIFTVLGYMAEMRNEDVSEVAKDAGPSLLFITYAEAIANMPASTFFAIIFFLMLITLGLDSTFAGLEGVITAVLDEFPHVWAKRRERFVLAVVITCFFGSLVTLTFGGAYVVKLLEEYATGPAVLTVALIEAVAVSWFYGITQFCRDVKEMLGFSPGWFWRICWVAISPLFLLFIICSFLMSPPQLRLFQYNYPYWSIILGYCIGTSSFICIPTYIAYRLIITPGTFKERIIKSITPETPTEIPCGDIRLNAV

Sequence of Sodium-dependent serotonin transporter (Rattus norvegicus, UniProt P31652) (P31652 whole entry): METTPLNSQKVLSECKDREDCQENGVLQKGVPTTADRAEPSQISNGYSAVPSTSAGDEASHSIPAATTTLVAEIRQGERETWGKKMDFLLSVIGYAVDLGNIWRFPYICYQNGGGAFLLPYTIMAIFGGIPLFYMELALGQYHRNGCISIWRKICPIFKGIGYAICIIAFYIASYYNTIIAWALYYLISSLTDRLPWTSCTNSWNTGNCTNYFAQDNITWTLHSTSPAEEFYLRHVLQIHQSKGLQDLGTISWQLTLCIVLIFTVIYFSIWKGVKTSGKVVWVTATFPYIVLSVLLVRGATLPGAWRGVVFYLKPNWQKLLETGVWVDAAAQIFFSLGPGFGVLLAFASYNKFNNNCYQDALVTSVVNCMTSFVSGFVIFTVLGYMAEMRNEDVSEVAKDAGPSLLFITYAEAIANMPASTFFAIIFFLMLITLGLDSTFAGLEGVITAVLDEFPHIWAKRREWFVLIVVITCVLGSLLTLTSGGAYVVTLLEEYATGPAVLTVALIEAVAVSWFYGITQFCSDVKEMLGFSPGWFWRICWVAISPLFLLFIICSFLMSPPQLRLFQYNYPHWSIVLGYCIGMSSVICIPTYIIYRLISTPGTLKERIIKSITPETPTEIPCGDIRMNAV

Compound | IC50 [1] | Ki [2]
CC1CN(c2ccc3cc([N+](=O)[O-])ccc3n2)CCN1CCCCN1C(=O)CCCC1=O (stereo unspecified) | 0.268 µM | –
CC1CN(c2ccc3cc([N+](=O)[O-])ccc3n2)CCN1CCCCN1C(=O)CC2(CCCC2)CC1=O (stereo unspecified) | 1.35 µM | –
CC1CN(c2ccc3cc([N+](=O)[O-])ccc3n2)CCN1CCCCN1C(=O)CC(C)(C)CC1=O (stereo unspecified) | 0.807 µM | –
CC1(C)CC(=O)N(CCCCN2CCN(c3ccc4cc([N+](=O)[O-])ccc4n3)CC2)C(=O)C1 | 0.616 µM | –
CC1(C)CC(=O)N(CCCCN2CCN(c3ccc4c(Cl)cccc4n3)CC2)C(=O)C1 | 2.8 µM | –
CC(=O)Nc1ccc2nc(N3CCN(CCCCN4C(=O)CC5(CCCC5)CC4=O)CC3)ccc2c1 | 18.8 µM | –
O=[N+]([O-])c1ccc2nc(N3CCNCC3)ccc2c1 [6-NITROQUIPAZINE] | – | 0.00017 µM

The remaining compounds from weak to strong by IC50 [1], led by results:

IC50 [1] | Compound | Ki [2]
25.9 µM | O=C1CC2(CCCC2)CC(=O)N1CCCCN1CCN(c2ccc3cc([N+](=O)[O-])ccc3n2)CC1 | –
4.13 µM | O=C1c2ccccc2C(=O)N1CCCCN1CCN(c2ccc3cc([N+](=O)[O-])ccc3n2)CC1 | –
0.921 µM | O=C1CCCC(=O)N1CCCCN1CCN(c2ccc3cc([N+](=O)[O-])ccc3n2)CC1 | –
0.171 µM | CC1CN(c2ccc3ccccc3n2)CCN1CCCCN1C(=O)CC(C)(C)CC1=O (stereo unspecified) | –
